US7632816B2, “Treatment of Alzheimer amyloid deposition” (New York University, priority 2003, dated 2009)
Entries after “also recorded” stand apart in the source; their conditions may differ. Like-named read-outs stand apart in the source and are kept apart here. Square brackets hold non-standard residues; d marks the D form. Peptide text beside a SMILES is read from it.

Columns and labels:
apoE4 = biological target: T1, apoE4 (Homo sapiens, UniProt P02649, C130R); test: Thioflavin-T aggregation inhibition: apoE4-promoted Aβ1-42 fibril formation; assay type: biochemical
T1 construct: made in house; host or cells: primary forebrain astrocytes of GFAP-human apoE4 transgenic mice
Method: Recombinant apoE3 and apoE4 were purchased from Calbiochem Corp. (San Diego, Calif.). Lipidated apoE3 and apoE4 complexes were prepared from primary cultures of astrocytes derived from Tg mice in which human apoE3 or apoE4 were expressed under the control of the astrocyte-specific glial fibrillary acidic protein (GFAP) promoter as described previously (Fagan et al., “Unique Lipoproteins Secreted by Primary Astrocytes from Wild Type, ApoE (−/−), and Human ApoE Transgenic Mice,” J. Biol. Chem. 274:30001-30007 (1999); DeMattos et al., “Purification and Characterization of Astrocyte-secreted Apolipoprotein E and J-Containing Lipoproteins from Wild-type and Human ApoE Transgenic Mice,” Neurochemistry International 39:415-425 (2001); Sun et al., “Glial Fibrillary Acidic Protein-apolipoprotein E (apoE) Transgenic Mice: Astrocyte-specific Expression and Differing Biological Effects of Astrocyte-secreted ApoE3 and ApoE4 Lipoproteins,” J. Neurosci. 18:3261-3272 (1998); which are hereby incorporated by reference in their entirety). […] The purity of the apoE preparation was assessed by SDS-PAGE.
Aβ1-40 and Aβ1-42 were studied for comparison. […] Samples containing 15 μg of incubated peptides were taken at indicated intervals and fluorescence was measured as previously described in a Perkin-Elmer LS-50B fluorescence spectrophotometer (Perkin Elmer Instruments, Shelton, Conn.) (Wisniewski et al., “Acceleration of Alzheimer's Fibril Formation by Apolipoprotein E in vitro,” Am. J. Pathol. 145:1030-1035 (1994); Golabek et al., “The Interaction Between Apolipoprotein E and Alzheimer's Amyloid β-peptide is Dependent on β-peptide Conformation,” J. Biol. Chem. 271:10602-10606 (1996); which are hereby incorporated by reference in their entirety). […] Differences in amount of fibrils formed by the different peptides were evaluated by means of a repeated measures ANOVA, followed by a Tukey HSD post-hoc test using Statistica (version 6.1) (StatSoft Inc., Tulsa, Okla.). […]

[1] = Thioflavin-T assay of the peptides' own amyloid fibril formation; assay type: physicochemical; conditions: 100 μmol/L peptide, 37° C., up to 10 days
Method: All peptides were HFIP treated and reconstituted in 100 mM Tris buffer (pH 7.4) to obtain a 100 μmol/L concentration. […] Peptides were incubated over a period of 10 days at 37° C. Samples containing 15 μg of incubated peptides were taken at indicated intervals and fluorescence was measured as previously described in a Perkin-Elmer LS-50B fluorescence spectrophotometer (Perkin Elmer Instruments, Shelton, Conn.) (Wisniewski et al., “Acceleration of Alzheimer's Fibril Formation by Apolipoprotein E in vitro,” Am. J. Pathol. 145:1030-1035 (1994); Golabek et al., “The Interaction Between Apolipoprotein E and Alzheimer's Amyloid β-peptide is Dependent on β-peptide Conformation,” J. Biol. Chem. 271:10602-10606 (1996); which are hereby incorporated by reference in their entirety). The mean±standard deviation (“SD”) for three separate experiments was plotted in FIG. 1. Differences in amount of fibrils formed by the different peptides were evaluated by means of a repeated measures ANOVA, followed by a Tukey HSD post-hoc test using Statistica (version 6.1) (StatSoft Inc., Tulsa, Okla.).

T1 sequence (P02649 19-317 C130R): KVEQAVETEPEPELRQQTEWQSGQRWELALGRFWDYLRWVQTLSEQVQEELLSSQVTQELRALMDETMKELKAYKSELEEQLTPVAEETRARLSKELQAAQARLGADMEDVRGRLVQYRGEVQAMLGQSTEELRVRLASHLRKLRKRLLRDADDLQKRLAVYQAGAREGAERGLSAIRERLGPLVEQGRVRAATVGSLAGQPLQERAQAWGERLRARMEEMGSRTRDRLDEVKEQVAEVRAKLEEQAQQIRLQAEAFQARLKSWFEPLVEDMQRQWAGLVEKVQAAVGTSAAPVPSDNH

CC(=O)N[C@@H](C(=O)N[C@H](Cc1c[nH]cn1)C(=O)N[C@H](Cc1c[nH]cn1)C(=O)N[C@H](CCC(N)=O)C(=O)N[C@H](CCCCN)C(=O)N[C@H](CC(C)C)C(=O)N1CCC[C@@H]1C(=O)N[C@H](Cc1ccccc1)C(=O)N[C@H](Cc1ccccc1)C(=O)N[C@H](C)C(=O)N[C@H](CCC(=O)O)C(=O)N[C@H](CC(=O)O)C(=O)N[C@@H](C(=O)NCC(=O)N[C@H](CO)C(=O)N[C@H](CC(N)=O)C(=O)N[C@H](CCCCN)C(N)=O)C(C)C)C(C)C [Aβ12-28P] (Ac-[dV][dH][dH][dQ][dK][dL][dP][dF][dF][dA][dE][dD][dV]G[dS][dN][dK]-NH2)
relative reduction in fluorescence (apoE4): 25.3%
relative reduction in fluorescence (apoE4; apoE4 preincubated with Aβ12-28P, then added to Aβ1-42, day six): 52.3%
chaperoning effect of apoE4 on Aβ1-42 fibril formation (apoE4; apoE4 preincubated with equimolar Aβ12-28P, p<0.01): significantly reduced
fibril formation (Thioflavin-T fluorescence) [1]: did not form any fibrils; also recorded: non-fibrillogenic; also recorded: No fibrils were formed
